{"source": "patent US12290519B2", "about": "“Anti-inflammatory coupling compound drug, and preparation method therefor and use thereof” (COVAL BIOPHARMA (SHANGHAI) CO., LTD., priority 2021, dated 2025)"}
{"assay": "Hydrolysis rate / drug release rate of the compounds (release of JAK inhibitor, HPLC)", "format": "physicochemical", "conditions": "% release of JAK inhibitor from sample in acetonitrile/water=7/3 (v/v), 37° C. constant temperature shaker, sampled days 1-4, HPLC", "summary_of_the_method": "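HPLC quantified parent JAK inhibitor freed from each compound, calibrated with 0.0002–0.08 mg/mL standards. Samples in acetonitrile/water 7/3 were kept sealed at 37° C and analysed at day 0 and on days 1 to 4. % release was computed from sample weight, curve slope/intercept and the molecular-weight ratio.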", "units": {"Release Rate (%/day)": "%/day"}}
{"smiles": "CCS(=O)(=O)N1CC(CC#N)(n2cc(-c3ncnc4c3ccn4COC(=O)Cc3ccccc3Nc3c(Cl)cccc3Cl)cn2)C1", "note": "[Ex. 70, Methyl (4-(1-(3-(cyanomethyl)-1-(ethylsulfonyl)azetidin-3-yl)-1H-pyrazol-4-yl)-7H-pyrrolo [2,3-d]pyrimidin-7-yl) 2-(2-((2,6-dichlorophenyl)amino)phenyl) acetate]", "Release Rate (%/day)": 0.42}
{"smiles": "CCS(=O)(=O)N1CC(CC#N)(n2cc(-c3ncnc4c3ccn4COC(=O)C(C)c3cccc(Oc4ccccc4)c3)cn2)C1", "note": "(stereo not drawn) [Ex. 71, Methyl (4-(1-(3-(cyanomethyl)-1-(ethylsulfonyl)azetidin-3-yl)-1H-pyrazol-4-yl)-7H-pyrrolo [2,3-d]pyrimidin-7-yl) 2-(3-phenoxyphenyl) propanoate]", "Release Rate (%/day)": 0.01}
{"smiles": "CCS(=O)(=O)N1CC(CC#N)(n2cc(-c3ncnc4c3ccn4COC(=O)C(C)c3ccc(CC4CCCC4=O)cc3)cn2)C1", "note": "(stereo not drawn) [Ex. 72, Methyl (4-(1-(3-(cyanomethyl)-1-(ethylsulfonyl)azetidin-3-yl)-1H-pyrazol-4-yl)-7H1-pyrrolo [2,3-d]pyrimidin-7-yl) 2-(4-((2-oxocyclopentyl)methyl)phenyl) propanoate]", "Release Rate (%/day)": "<0.01"}
{"smiles": "CCS(=O)(=O)N1CC(CC#N)(n2cc(-c3ncnc4c3ccn4COC(=O)Cc3c(C)n(C(=O)c4ccc(Cl)cc4)c4ccc(OC)cc34)cn2)C1", "note": "[Ex. 73, Methyl (4-(1-(3-(cyanomethyl)-1-(ethylsulfonyl)azetidin-3-yl)-1H-pyrazol-4-yl)-7H-pyrrolo [2,3-d]pyrimidin-7-yl) 2-(1-(4-chlorobenzoyl)-5-methoxy-2-methyl-1H-indol-3-yl) acetate]", "Release Rate (%/day)": 0.2}
{"smiles": "CCS(=O)(=O)N1CC(CC#N)(n2cc(-c3ncnc4c3ccn4COC(=O)[C@@H](NC(=O)OC(C)(C)C)c3ccccc3)cn2)C1", "note": "[Ex. 74, Methyl (4-(1-(3-(cyanomethyl)-1-(ethylsulfonyl)azetidin-3-yl)-1H-pyrazol-4-yl)-7H-pyrrolo [2,3-d]pyrimidin-7-yl) (S)-2-((tert-butoxycarbonyl)amino)-2-phenylacetate]", "Release Rate (%/day)": 0.44}
{"smiles": "N#CC[C@H](C1CCCC1)n1cc(-c2ncnc3c2ccn3C(=O)Cc2ccccc2Nc2c(Cl)cccc2Cl)cn1", "note": "[Ex. 75, (R)-3-cyclopentyl-3-(4-(7-(2-(2-((2,6-dichlorophenyl)amino)phenyl)acetyl)-7H-pyrrolo [2,3-d]pyrimidin-4-yl)-1H-pyrazol-1-yl) propanenitrile]", "Release Rate (%/day)": 10.38}
{"smiles": "CCC(C(=O)OCn1ccc2c(-c3cnn(C4(CC#N)CN(S(=O)(=O)CC)C4)c3)ncnc21)c1ccc(N2Cc3ccccc3C2=O)cc1", "note": "(stereo not drawn) [Ex. 76, Methyl (4-(1-(3-(cyanomethyl)-1-(ethylsulfonyl)azetidin-3-yl)-1H-pyrazol-4-yl)-7H-pyrrolo [2,3-d]pyrimidin-7-yl) 2-(4-(1-oxoisoindolin-2-yl)phenyl) butanoate]", "Release Rate (%/day)": 0.05}
{"smiles": "CC(C(=O)n1ccc2c(-c3cnn([C@H](CC#N)C4CCCC4)c3)ncnc21)c1ccc(CC2CCCC2=O)cc1", "note": "(stereo partly drawn) [Ex. 77, (3R)-3-cyclopentyl-3-(4-(7-(2-(4-((2-oxocyclopentyl)methyl)phenyl)propanoyl)-7H-pyrrolo [2,3-d]pyrimidin-4-yl)-1H-pyrazol-1-yl) propanenitrile]", "Release Rate (%/day)": 3.69}
{"smiles": "CC(=O)Nc1ccc(CC(=O)n2ccc3c(-c4cnn([C@H](CC#N)C5CCCC5)c4)ncnc32)cc1", "note": "[Ex. 78, (R)—N-(4-(2-(4-(1-(2-cyano-1-cyclopentylethyl)-1H-pyrazol-4-yl)-7H-pyrrolo [2,3-d]pyrimidin-7-yl)-2-oxoethyl)phenyl) acetamide]", "Release Rate (%/day)": 6.27}
{"smiles": "COc1ccc2c(c1)c(CC(=O)n1ccc3c(-c4cnn([C@H](CC#N)C5CCCC5)c4)ncnc31)c(C)n2C(=O)c1ccc(Cl)cc1", "note": "[Ex. 79, (R)-3-(4-(7-(2-(1-(4-chlorobenzoyl)-5-methoxy-2-methyl-1H-indol-3-yl)acetyl)-7H-pyrrolo [2,3-d]pyrimidin-4-yl)-1H-pyrazol-1-yl)-3-cyclopentylpropanenitrile]", "Release Rate (%/day)": 7.38}
{"smiles": "CC(C)(C)OC(=O)N[C@H](C(=O)n1ccc2c(-c3cnn([C@H](CC#N)C4CCCC4)c3)ncnc21)c1ccccc1", "note": "[Ex. 80, Tert-butyl ((S)-2-(4-(1-((R)-2-cyano-1-cyclopentylethyl)-1H-pyrazol-4-yl)-7H-pyrrolo [2,3-d]pyrimidin-7-yl)-2-oxo-1-phenylethyl) carbamate]", "Release Rate (%/day)": 27.29}
{"smiles": "CCS(=O)(=O)N1CC(CC#N)(n2cc(-c3ncnc4c3ccn4COC(=O)c3ccccc3Nc3cccc(Cl)c3C)cn2)C1", "note": "[Ex. 81, Methyl (4-(1-(3-(cyanomethyl)-1-(ethylsulfonyl)azetidin-3-yl)-1H-pyrazol-4-yl)-7H-pyrrolo [2,3-d]pyrimidin-7-yl) 2-((3-chloro-2-methylphenyl)amino) benzoate]", "Release Rate (%/day)": 0.013}
{"smiles": "Cc1cccc(Nc2ccccc2C(=O)n2ccc3c(-c4cnn([C@H](CC#N)C5CCCC5)c4)ncnc32)c1C", "note": "[Ex. 82, (R)-3-cyclopentyl-3-(4-(7-(2-((2,3-dimethylphenyl)amino)benzoyl)-7H-pyrrolo [2,3-d]pyrimidin-4-yl)-1H-pyrazol-1-yl) propanenitrile]", "Release Rate (%/day)": 0.43}
{"smiles": "CCS(=O)(=O)N1CC(CC#N)(n2cc(-c3ncnc4c3ccn4COC(=O)c3ccccc3Nc3cccc(C)c3C)cn2)C1", "note": "[Ex. 83, Methyl (4-(1-(3-(cyanomethyl)-1-(ethylsulfonyl)azetidin-3-yl)-1H-pyrazol-4-yl)-7H-pyrrolo [2,3-d]pyrimidin-7-yl) 2-((2,3-dimethylphenyl)amino) benzoate]", "Release Rate (%/day)": 0.003}
{"smiles": "CCS(=O)(=O)N1CC(CC#N)(n2cc(-c3ncnc4c3ccn4COC(=O)Cc3ccc(NC(C)=O)cc3)cn2)C1", "note": "[Ex. 84, Methyl (4-(1-(3-(cyanomethyl)-1-(ethylsulfonyl)azetidin-3-yl)-1H-pyrazol-4-yl)-7H-pyrrolo [2,3-d]pyrimidin-7-yl) 2-(4-acetamidophenyl) acetate]", "Release Rate (%/day)": 0.06}
{"smiles": "CCc1cccc2c3c([nH]c12)C(CC)(CC(=O)OCn1ccc2c(-c4cnn(C5(CC#N)CN(S(=O)(=O)CC)C5)c4)ncnc21)OCC3", "note": "(stereo not drawn) [Ex. 85, Methyl (4-(1-(3-(cyanomethyl)-1-(ethylsulfonyl)azetidin-3-yl)-1H-pyrazol-4-yl)-7H-pyrrolo [2,3-d]pyrimidin-7-yl) 2-(1,8-diethyl-1,3,4,9-tetrahydropyrano [3,4-b]indol-1-yl) acetate]", "Release Rate (%/day)": 0.61}
{"smiles": "CC(C)Cc1ccc([C@H](C)C(=O)OCn2ccc3c(-c4cnn([C@H](CC#N)C5CCCC5)c4)ncnc32)cc1", "note": "[Ex. 86, (4-(1-((R)-2-cyano-1-cyclopentylethyl)-1H-pyrazol-4-yl)-7H-pyrrolo [2,3-d]pyrimidin-7-yl) methyl (S)-2-(4-isobutylphenyl) propanoate]", "Release Rate (%/day)": "<0.01"}
{"smiles": "COc1ccc2cc([C@H](C)C(=O)OCn3ccc4c(-c5cnn([C@H](CC#N)C6CCCC6)c5)ncnc43)ccc2c1", "note": "[Ex. 87, (4-(1-((R)-2-cyano-1-cyclopentylethyl)-1H-pyrazol-4-yl)-7H-pyrrolo [2,3-d]pyrimidin-7-yl) methyl (S)-2-(6-methoxynaphthalen-2-yl) propanoate]", "Release Rate (%/day)": 0.01}
{"smiles": "CNS(=O)(=O)C[C@H]1CC[C@H](N(C)c2ncnc3c2ccn3COC(=O)[C@@H](C)c2ccc(CC(C)C)cc2)CC1", "note": "[Ex. 88, (4-(Methyl ((trans)-4-((N-methylsulfamoyl)methyl)cyclohexyl)amino)-7H-pyrrolo [2,3-d]pyrimidin-7-yl) methyl (S)-2-(4-isobutylphenyl) propanoate]", "Release Rate (%/day)": 0.17}
{"smiles": "CNS(=O)(=O)C[C@H]1CC[C@H](N(C)c2ncnc3c2ccn3COC(=O)[C@@H](C)c2ccc3cc(OC)ccc3c2)CC1", "note": "[Ex. 89, (4-(Methyl ((trans)-4-((N-methylsulfamoyl)methyl)cyclohexyl)amino)-7H-pyrrolo [2,3-d]pyrimidin-7-yl) methyl (S)-2-(6-methoxynaphthalen-2-yl) propanoate]", "Release Rate (%/day)": 0.16}
{"smiles": "CNS(=O)(=O)C[C@H]1CC[C@H](N(C)c2ncnc3c2ccn3COC(=O)C(C)c2cccc(C(=O)c3ccccc3)c2)CC1", "note": "(stereo partly drawn) [Ex. 90, (4-(Methyl ((trans)-4-((N-methylsulfamoyl)methyl)cyclohexyl)amino)-7H-pyrrolo [2,3-d]pyrimidin-7-yl) methyl 2-(3-benzoylphenyl) propanoate]", "Release Rate (%/day)": 0.35}
{"smiles": "CNS(=O)(=O)C[C@H]1CC[C@H](N(C)c2ncnc3c2ccn3COC(=O)[C@@H](NC(=O)OC(C)(C)C)c2ccccc2)CC1", "note": "[Ex. 91, (4-(Methyl ((trans)-4-((N-methylsulfamoyl)methyl)cyclohexyl)amino)-7H-pyrrolo [2,3-d]pyrimidin-7-yl) methyl (S)-2-((tert-butoxycarbonyl)amino)-2-phenylacetate]", "Release Rate (%/day)": 1.65}
{"smiles": "CNS(=O)(=O)C[C@H]1CC[C@H](N(C)c2ncnc3c2ccn3COC(=O)Cc2ccccc2Nc2c(Cl)cccc2Cl)CC1", "note": "[Ex. 92, (4-(Methyl ((trans)-4-((N-methylsulfamoyl)methyl)cyclohexyl)amino)-7H-pyrrolo [2,3-d]pyrimidin-7-yl) methyl 2-(2-((2,6-dichlorophenyl)amino)phenyl) acetate]", "Release Rate (%/day)": 0.82}
{"smiles": "CNS(=O)(=O)C[C@H]1CC[C@H](N(C)c2ncnc3c2ccn3COC(=O)Cc2ccc(NC(C)=O)cc2)CC1", "note": "[Ex. 93, (4-(Methyl ((trans)-4-((N-methylsulfamoyl)methyl)cyclohexyl)amino)-7H-pyrrolo [2,3-d]pyrimidin-7-yl) methyl 2-(4-acetamidophenyl) acetate]", "Release Rate (%/day)": 0.83}
